From patent US20120022122A1, “TREATMENT AND PREVENTION OF DELETERIOUS EFFECTS ASSOCIATED WITH ALCOHOL CONSUMPTION” (priority 2008, published 2012)
Where two headings read alike, the source gives them in different places.

Tests used:
[1] = test system: alcohol-induced flush reaction; conditions: for effects/effectiveness compared to no treatment or comparator: cimetidine 300 mg vs famotidine 10 mg vs no treatment; for effectiveness as preventative treatment against symptoms of alcohol-induced flush reaction (summary of the studies): famotidine at low dose, cimetidine at a higher dose; for undesired side-effects (drowsiness, sedation): famotidine 10 mg oral chewable tablet, with alcohol;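 for all read-outs here: human subjects with alcohol-induced flushing observed over social drinking occasions, with each subject also tested untreated as the control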
[2] = test system: alcohol flush reaction and hangover; conditions: previous studies with famotidine alone
[3] = cited from earlier work
[4] = Patient one, oral 45 min before drinking: cimetidine 300 mg (2 beverages, about 2 h) or famotidine 10 mg (2 oz tequila and 5 glasses beer, more than 6 h)
[5] = Patient three, oral 45 min before drinking: cimetidine 300 mg (2 beverages, about 3 h) or famotidine 10 mg (cocktails, about 4 h)
[6] = Subject 2, with alcohol, oral 45 min before drinking: cimetidine 300 mg or famotidine 10 mg
[7] = Subject 4, with alcohol, oral 45 min before drinking: cimetidine 300 mg or famotidine 10 mg
[8] = Subject 1, with alcohol, oral 45 min before drinking: loratidine 20 mg or famotidine 10 mg
[9] = Subject 3, with alcohol, oral 45 min before drinking: loratidine 20 mg or famotidine 10 mg
[10] = Subject 5, with alcohol, oral 45 min before drinking: loratidine 20 mg or famotidine 10 mg

## CN/C(=N/CCSCc1nc[nH]c1C)NC#N [Cimetidine]
[1]; Patient one
  effects/effectiveness compared to no treatment or comparator: slightly less aggressive
[1]; [4]
  flushing reaction after drinking alcohol: still experienced a facial flushing reaction, increased heart rate, as well as a headache
[1]; Patient three
  effects/effectiveness compared to no treatment or comparator: slightly less aggressive
[1]; [5]
  flushing reaction after drinking alcohol: still experienced a facial flushing reaction and an increased heart rate
[1]; [6]
  Heart rate: 97
  Temp (F.): 98.0 F.
[1]; [7]
  Heart rate: 87
  Temp (F.): 97.1 F.
[1]
  effectiveness as preventative treatment against symptoms of alcohol-induced flush reaction (summary of the studies): minimally effective

## NC(N)=Nc1nc(CSCCC(N)=NS(N)(=O)=O)cs1 [Famotidine]
[1]; 10 mg of famotidine
  redness while imbibing in alcohol: significantly prevents redness
[1]; Patient five
  undesired side-effects (drowsiness, sedation): no undesired side-effects whatsoever
[1]; Patient five, famotidine 10 mg oral, continued drinking beyond six drinks and more than six hours
  period after which the protective effect (flushing blockade) dissipated: about five
[1]; Patient five, oral 45 min before drinking: loratadine 20 mg (1 beverage, 1 h) or famotidine 10 mg (5 beverages, about 5 h)
  flushing reaction after drinking alcohol: neither a facial flushing reaction nor any nasal congestion
[1]; Patient four
  undesired side-effects (drowsiness, sedation): no undesired side-effects whatsoever
[1]; Patient four, oral 45 min before drinking: loratadine 20 mg (3 beverages, 3-4 h) or famotidine 10 mg (multiple glasses of wine, 4 h)
  flushing reaction after drinking alcohol: no flushing reactions of the face or of the torso
[1]; Patient one
  effects/effectiveness compared to no treatment or comparator: much more effective than cimetidine
  undesired side-effects (drowsiness, sedation): no undesired side-effects whatsoever
[1]; [4]
  flushing reaction after drinking alcohol: no facial flushing reaction
[1]; Patient three
  effects/effectiveness compared to no treatment or comparator: much more effective than cimetidine or no treatment
  undesired side-effects (drowsiness, sedation): no undesired side-effects whatsoever
[1]; [5]
  flushing reaction after drinking alcohol: no flushing reactions of the face
[1]; Patient two
  undesired side-effects (drowsiness, sedation): no undesired side-effects whatsoever
[1]; Patient two, oral 45 min before drinking: loratadine 20 mg (3 beverages, 3-4 h) or famotidine 10 mg (2-3 glasses Vodka, several hours)
  flushing reaction after drinking alcohol: no flushing reactions, either of the face or of the torso
[1]; [8]
  Heart rate: 77
  Temp (F.): 97.3 F.
[1]; [6]
  Heart rate: 82
  Temp (F.): 98.2 F.
[1]; [9]
  Heart rate: 84
  Temp (F.): 97.4 F.
[1]; [7]
  Heart rate: 78
  Temp (F.): 97.1 F.
[1]; [10]
  Heart rate: 83
  Temp (F.): 97.3 F.
[1]
  effectiveness as preventative treatment against symptoms of alcohol-induced flush reaction (summary of the studies): highly effective
[2]
  symptoms associated with hangover: did not appear to significantly reduce or eliminate symptoms associated with hangover
[3]; in ethanol
  solubility: practically insoluble
[3]; in glacial acetic acid
  solubility: freely soluble
[3]; in methanol
  solubility: slightly soluble
[3]; in water
  solubility: very slightly soluble
